Reference: patent US20060166894A1, “Ace-inhibitors having antioxidant and no-donor activity” (Yissum Research Development Company of the Hebrew …, priority 2002, published 2006)

Molecular target: T1, recombinant human somatic ACE (Homo sapiens, UniProt P12821)
T1 construct: purchased R&D Systems
Experiment: ACE activity, cleavage of fluorogenic peptide substrate
Type: biochemical
Conditions: fluorogenic substrate 10 μM, 50 mM sodium borate buffer pH 8.2, 37° C.
Description: Angiotensin converting enzyme (ACE) is a dipeptidyl carboxypeptidase that releases the C-terminal dipeptide His-Leu from decapeptide angiotensin I, converting it to the vasoconstrictor angiotensin II (Ang II). The assay for ACE activity will measure the cleavage of a fluorogenic peptide substrate, (7-methoxycoumarin-4-yl)acetyl-Arg-Pro-Pro-Gly-Phe-Ser-Ala-Phe-Lys(2,4 dinitrophenyl; R&D Systems). This peptide substrate contains a fluorescent 7-methoxycoumarin group that is internally quenched by resonance energy transfer to the 2,4-dinitrophenyl group. ACE cleaves the peptide between the Ala-Phe (between the fluorescent group and the quencher group), resulting in an increase in fluorescence. The assay is carried out in a 96-well plate. […] Fluorescence changes (relative fluorescence units/min, RFU/min) are measured using a fmax fluorescence microplate reader (Molecular Devices with SoftmaxPro software) at 37° C. with excitation and emission wavelengths of 320 nm and 405 nm, respectively. A background rate determined for samples containing no ACE is subtracted from all reactions to calculate the initial rates in RFU/min. […]
The ACE activity of the compound N-{2-([1,2]dithiolan-3-yl)-propionyl}-pyrrolidine-2-carboxylic acid was measured as described above.

T1 sequence (P12821 30-1306): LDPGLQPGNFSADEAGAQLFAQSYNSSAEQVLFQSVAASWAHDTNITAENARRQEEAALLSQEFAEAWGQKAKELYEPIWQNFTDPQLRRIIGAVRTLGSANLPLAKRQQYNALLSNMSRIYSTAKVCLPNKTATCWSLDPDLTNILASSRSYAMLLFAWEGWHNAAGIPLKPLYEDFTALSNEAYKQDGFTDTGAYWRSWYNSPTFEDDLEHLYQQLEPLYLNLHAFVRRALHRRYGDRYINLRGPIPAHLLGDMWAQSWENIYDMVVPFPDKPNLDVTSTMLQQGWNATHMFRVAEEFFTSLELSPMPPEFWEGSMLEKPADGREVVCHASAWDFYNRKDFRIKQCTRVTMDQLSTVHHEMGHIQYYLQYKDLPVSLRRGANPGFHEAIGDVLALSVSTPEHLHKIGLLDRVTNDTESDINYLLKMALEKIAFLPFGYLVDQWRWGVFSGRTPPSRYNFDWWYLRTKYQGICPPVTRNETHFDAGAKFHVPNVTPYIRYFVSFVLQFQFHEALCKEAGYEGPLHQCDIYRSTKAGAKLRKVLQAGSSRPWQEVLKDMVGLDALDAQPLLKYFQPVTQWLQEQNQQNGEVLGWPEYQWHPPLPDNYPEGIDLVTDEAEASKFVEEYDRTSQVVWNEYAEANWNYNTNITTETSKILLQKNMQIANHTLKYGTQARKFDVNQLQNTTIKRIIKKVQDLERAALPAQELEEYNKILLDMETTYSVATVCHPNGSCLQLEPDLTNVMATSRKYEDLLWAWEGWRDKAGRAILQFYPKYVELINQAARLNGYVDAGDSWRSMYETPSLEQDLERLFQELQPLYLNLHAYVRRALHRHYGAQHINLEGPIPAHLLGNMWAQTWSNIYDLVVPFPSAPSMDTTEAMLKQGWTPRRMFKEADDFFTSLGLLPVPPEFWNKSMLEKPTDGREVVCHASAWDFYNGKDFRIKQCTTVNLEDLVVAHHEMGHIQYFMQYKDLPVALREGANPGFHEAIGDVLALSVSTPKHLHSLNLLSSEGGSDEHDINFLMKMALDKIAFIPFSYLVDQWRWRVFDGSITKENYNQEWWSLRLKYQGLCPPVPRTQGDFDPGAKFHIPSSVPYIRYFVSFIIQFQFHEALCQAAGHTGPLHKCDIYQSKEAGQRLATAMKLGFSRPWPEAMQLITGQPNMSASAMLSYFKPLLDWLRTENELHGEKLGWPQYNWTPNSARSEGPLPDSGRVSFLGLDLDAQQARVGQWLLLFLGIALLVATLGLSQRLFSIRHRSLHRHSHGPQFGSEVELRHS

IC50: 64 µM
Compound: CC(C(=O)N1CCCC1C(=O)O)C1CCSS1 (stereo not shown) [N-{2-([1,2]Dithiolan-3-yl)-propionyl}-pyrrolidine-2-carboxylic acid]
